Each structure is given as a SMILES string.

These results are taken from ChEMBL document CHEMBL5728758, “Heterocyclic compound as Syk inhibitor and/or Syk-HDAC dual inhibitor” (2021).

Experiment [1] has as its target Tyrosine-protein kinase SYK (Homo sapiens, UniProt P43405). Put plainly: Syk Kinase Activity Inhibitiory Experiment: Measure of SYK protein kinase activity was carried out by using the Caliper mobility shift assay. The compound was dissolved with DMSO and diluted with kinase buffer (20 mM HEPES pH 7.5, 0.01% Triton X-100, 5 mM MgCl2, 1 mM MnCl2, 2 mM DTT), and 5 μl of 5 times the final concentration of the compounds (10% DMSO) were added to 384 well plate. 10 μl of 2.5 fold enzyme (with SYK) solution was added and incubated at room temperature for 10 minutes, then 10 of 2.5 fold substrate (Peptide FAM-P22) and ATP) solution was added. The mixture was incubated for 30 minutes under 28° C., and 25 μl of stop buffer (100 mM HEPES pH 7.5, 0.015% Brij-35, 0.2% Coating Reagent #3, 50 mM EDTA) was added to terminate the reaction. Conversion rate data was read by Caliper EZ Reader II (Caliper Life Sciences). Conversion rate was converted to inhibition rate data (% inhibition rate=(max−conversion rate)/(max−min)*100). The max refers to the conversion rate of the DMSO control, and min refers to the conversion rate of the enzyme-free control. The curve was drawn with the compound concentration and inhibition rate as the horizontal and vertical coordinates, and the curve was fitted with the XLFit excel add-in version 4.3.1 Software, and IC50 was calculated.

Another experiment concerns the target Histone deacetylase 1 (Homo sapiens, UniProt Q13547). The experiment in a line: HDAC-1 and HDAC-6 Activity Inhibition Experiment: HDAC activity was measured by the Synergy MX Multi-Function Microplate Reader. The compounds were dissolved with DMSO, and transferred to a 384 well test plate using an Echo non-contact nanoscale sonic pipetting system. 15 μl of enzyme (HDAC1/HDAC6, respectively) solvent was added, and incubated at room temperature for 15 minutes, then 10 μl of substrate (trypsin and Ac-peptide) solution was added. Fluorescence intensity signal was read directly on Synergy MX (fluorescence excitation 355 nm, emission fluorescence 460 nm) after cultivated at room temperature for 60 minutes. Fluorescence intensity signal was convented into inhibition rate data (% inhibition rate=(max−fluorescence intensity)/(max−min)*100). The max refers to the fluorescence intensity of the DMSO control, and min refers to the fluorescence intensity of the enzyme-free control. The curve was drawn with the compound concentration and inhibition rate as the horizontal and vertical coordinates, and the curve was fitted with the GraphPad Prism V5.0 Software, and IC50 was calculated.

Histone deacetylase 1, sequence (Q13547 whole entry): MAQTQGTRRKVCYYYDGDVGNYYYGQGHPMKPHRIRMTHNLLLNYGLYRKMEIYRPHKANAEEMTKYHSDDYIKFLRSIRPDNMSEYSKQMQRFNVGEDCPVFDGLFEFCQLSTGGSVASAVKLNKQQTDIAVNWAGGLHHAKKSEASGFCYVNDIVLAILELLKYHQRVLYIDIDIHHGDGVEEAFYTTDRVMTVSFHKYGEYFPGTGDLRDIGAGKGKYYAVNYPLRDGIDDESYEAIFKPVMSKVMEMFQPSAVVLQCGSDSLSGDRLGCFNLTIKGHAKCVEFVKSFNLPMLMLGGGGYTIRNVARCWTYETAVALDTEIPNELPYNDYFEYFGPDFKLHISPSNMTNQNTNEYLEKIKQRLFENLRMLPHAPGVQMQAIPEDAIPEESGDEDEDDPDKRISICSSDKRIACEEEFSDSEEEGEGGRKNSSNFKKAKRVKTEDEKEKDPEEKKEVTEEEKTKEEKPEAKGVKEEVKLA

Consider `O=C(CCCCCCNC(=O)c1cccc(-c2cn3ccnc3c(Nc3ccc(N4CCOCC4)cc3)n2)c1)NO`, for which the figures for the IC50 (in experiment [1]; on Histone deacetylase 1) were under 500 nM and under 100 nM, respectively.

One may read the IC50 as the concentration at which inhibition is half-maximal.
